In US12152174B2, “Adjustably stable adhesive compositions for medical and non-medical uses, and recycling” (THE REGENTS OF THE UNIVERSITY OF CALIFORNIA, priority 2023, dated 2024):

Columns and labels:
[1] = Lap shear tissue adhesion on wet bovine pericardium; settings: adhesive with 14 mol % L2 vs 7 mol %
Protocol: An atomized spray was initially chosen, as it allows for quick evaporation of ethanol to increase the concentration of the mixture rapidly and eliminate any undesired flow of the adhesive solution on the tissue surfaces. A solution of L1 and L2 (7 mol %) was prepared and sprayed on two pieces of tissue surfaces (40 μL in 1 cm^2) and the two pieces were immediately brought into contact. After forming the lap joints, they were incubated for 2 minutes in PBS at 37° C. for further curing of the polymer network. The lap shear strength after 2 minutes on wet bovine pericardium tissue was >100 kPa, which was only slightly lower than medical-grade superglue (See FIG. 3A). […] The failure mode analyses of the lap joints was performed by applying N-bromo succinimide to the failed tissue surfaces to visually indicate by charge transfer complexation of disulfide functionality and therefore the presence of adhesive polymer. […] The enhanced lap shear strength at longer incubation time is consistent with the enhanced cohesive strength of the polymer network as observed in the rheology analysis of the wet polymer (see FIG. 2E).
Lap shear tissue adhesion was also performed with L3 on both wet bovine pericardium and pig skin.
To study the effect of stabilizer concentration on tissue adhesion strength, another lap shear test was performed with a higher L2 concentration (14 mol %). […]

[2] = Gelation of ethanolic adhesive precursor solution; type: physicochemical; settings: pure solution at similar concentration, extended periods of time
[3] = Polymerization and depolymerization of ethanolic precursor on exposure to water or aqueous phosphate buffer; type: physicochemical; settings: 400 mg/mL ethanolic solution added to aqueous phosphate buffer
Protocol: An ethanolic solution of pure α-lipoic acid L1 was prepared at 400 mg/mL and added to an aqueous phosphate buffer. A metastable sticky polymer was obtained, but within a few minutes (<5 min), the sticky polymer converted to a solid monomeric precipitate with no apparent adhesive property.
At any time prior to or after gelation of the precursor solution, exposure to water triggers dithiolane polymerization which can be exploited for the purposes of isolating a polymer adhesive or for adhering objects together. […] We believe α-lipoic acid undergoes self-catalyzed polymerization followed by stabilization with NHS esters. Nonetheless, the aqueous polymerization appears to be less sensitive and extremely fast irrespective of the solution concentrations. We believe that due to the amphiphilic nature of the α-lipoic acid, it undergoes micelle-like self-reorganization in contact with water, which locally concentrates the cyclic backbone to accelerate the polymerization rate. Furthermore, detailed ^1H NMR experiments of diluted ethanolic solution of the mixtures show excellent stability of the NHS esters even at an extended period. Therefore, this opens the possibility of an on-demand aqueous polymerization from a precursor ethanolic solution, which we considered to be advantageous for translation in medical and other underwater applications. […]

[4] = Storage stability of precursor or polymer against polymerization or depolymerization; type: physicochemical; settings: coated and heated at 100° C for 4 hrs under vacuum, no stabilizer
Text: The self-catalysis of α-lipoic acid takes place by the activation of disulfide with a carboxylic acid. Thus, we hypothesized that introduction of a functional group with higher electron density than disulfide will act as a potential competitor of disulfide, thereby suppressing initiation. […] However, the liquid undergoes ultrafast polymerization when brought into contact with water (FIG. 1) to yield an adhesive polymer. We surmise that due to its higher hydration energy, L4 becomes solvated as it comes in contact with water, leading to disulfide activation by the carboxylic acids. This approach provides an adhesive precursor suitable for spray, brush or injection mode of application. […] The coated PET was heated at 100° C. for 4 hrs under vacuum. The heat created a stable, sticky viscoelastic polymer, showing that the stabilizer molecules are also effective at high temperatures. By comparison, for example, pure α-lipoic acid treated under similar conditions also forms a sticky polymer, but within 2-3 days becomes a solid crystalline spot indicating depolymerization of the polymer. Although a stabilizer is needed in many applications that require a prolonged stability, the poly(asparagusic acid) without the stabilizer is sufficiently stable for some uses. […]

Compound | shear strength at higher stabilizer concentration [1] | gel formation [2] | time until sticky polymer converted to solid monomeric precipitate (depolymerization) [3] [min] | time until sticky polymer becomes solid crystalline spot (depolymerization) [4] [days]
O=C(CCCCC1CCSS1)ON1C(=O)CCC1=O (stereo not shown) [L2, NHS-derivatized lipoic acid] | No significant difference |  |  | 
O=C(O)CCCCC1CCSS1 (stereo not drawn) [L1, α-lipoic acid] |  | did not form a gel | < 5 | 2 to 3
